Measurements published in patent US20160137639A1, “TRIAZOLE-ISOXAZOLE COMPOUND AND MEDICAL USE THEREOF” (JAPAN TOBACCO INC., priority 2012, published 2016).

Key:
human RORγ = target: T1, human RORγ (Homo sapiens, UniProt P51449); test: Luciferase reporter gene assay of inhibitory effect against RORγ transcriptional activity (GAL4-hRORγ plasmid in CHO cells); assay type: cell-based; settings: read-out: LUC EC50 (μM) hRORg
T1 construct: human, NM_005060.3 and from Ser253 to Lys518; expressed in transfected cells; host or cells: CHO cells (transient co-transfection with pG5-Luc reporter)
T1 sequence (P51449 253-518): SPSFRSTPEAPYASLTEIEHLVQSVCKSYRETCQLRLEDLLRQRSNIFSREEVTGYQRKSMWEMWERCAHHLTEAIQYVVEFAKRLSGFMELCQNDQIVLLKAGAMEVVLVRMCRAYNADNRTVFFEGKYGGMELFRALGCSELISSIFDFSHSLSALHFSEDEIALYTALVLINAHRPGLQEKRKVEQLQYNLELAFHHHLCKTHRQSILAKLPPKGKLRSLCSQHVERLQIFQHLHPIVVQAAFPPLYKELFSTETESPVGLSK

mouse RORγ = target: T2, mouse RORγ (Mus musculus, UniProt P51450); test: Luciferase reporter gene assay of inhibitory effect against RORγ transcriptional activity (GAL4-mRORγ plasmid in CHO cells); assay type: cell-based; settings: read-out: LUC EC50 (μM) mRORg
T2 construct: mouse, NM_011281.2 and from Ile251 to Lys516; expressed in transfected cells; host or cells: CHO cells (transient co-transfection with pG5-Luc reporter)
T2 sequence (P51450 251-516): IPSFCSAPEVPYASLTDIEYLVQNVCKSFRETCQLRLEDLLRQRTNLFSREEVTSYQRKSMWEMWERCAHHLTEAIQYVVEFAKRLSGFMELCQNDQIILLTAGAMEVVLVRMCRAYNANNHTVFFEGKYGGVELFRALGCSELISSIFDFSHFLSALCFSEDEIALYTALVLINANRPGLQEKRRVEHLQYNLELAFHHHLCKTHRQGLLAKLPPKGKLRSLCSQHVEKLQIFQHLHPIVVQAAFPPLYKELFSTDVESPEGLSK
Summary of the method: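 Readout is intracellular luciferase after 2-day compound exposure (8 concentrations, 0.1% DMSO) in CHO cells expressing GAL4 fused to mouse RORγ LBD residues Ile251–Lys516 plus pG5-Luc reporter. EC50 fitted from %-of-control; points showing resazurin-detected cytotoxicity dropped.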

| SMILES | EC50 (human RORγ) [µM] | EC50 (mouse RORγ) [µM] |
| --- | --- | --- |
| CCCC(CCC)NC(=O)CCc1nnc(C2Cc3ccccc3C2)n1CC [Example F-28] | > 3 | > 3 |
| CCn1c(CCC(=O)Nc2cc(Cl)cc(Cl)c2)nnc1C1Cc2ccccc2C1 [Example F-29] | > 3 | > 3 |
| CCn1c(CCC(=O)Nc2cccc(Cl)c2Cl)nnc1C1Cc2ccccc2C1 [Example F-30] | > 3 | < 3 |
| CCn1c(CCC(=O)Nc2ccc(Cl)cc2Cl)nnc1C1Cc2ccccc2C1 [Example F-31] | > 3 | > 3 |
| CCn1c(CCC(=O)Nc2cc(C)cc(C)c2)nnc1CCC1CCCCC1 [Example F-38] | < 3 | > 3 |
| CCn1c(CCC(=O)Nc2cccc(Cl)c2C)nnc1CCC1CCCCC1 [Example F-39] | < 3 | < 3 |
| CCn1c(CCC(=O)Nc2ccc(C)cc2C)nnc1CCC1CCCCC1 [Example F-40] | < 3 | < 3 |
| CCn1c(CCC(=O)NCc2ccccc2C)nnc1CCC1CCCCC1 [Example F-41] | < 3 | < 3 |
| CCn1c(CCC(=O)NCc2cccc(C)c2)nnc1CCC1CCCCC1 [Example F-42] | > 3 | > 3 |
| CCn1c(CCC(=O)NCc2ccccc2)nnc1CCC1CCCCC1 [Example F-45] | > 3 | > 3 |
| CCn1c(CCC(=O)Nc2cc(C)cc(C)c2)nnc1CCC(C)(C)C [Example F-46] | > 3 | > 3 |
| CCn1c(CCC(=O)Nc2ccc(C)cc2C)nnc1CCC(C)(C)C [Example F-47] | > 3 | < 3 |
| CCn1c(CCC(=O)Nc2ccc(C)cc2C)nnc1CCC1CCCC1 [Example F-48] | > 3 | < 3 |
| CCn1c(CCC(=O)Nc2cc(C)cc(C)c2)nnc1CCC1CCCC1 [Example F-49] | > 3 | > 3 |
| CCn1c(CCC(=O)Nc2cc(C)cc(C)c2)nnc1CCC(C)C [Example F-50] | > 3 | > 3 |
| CCn1c(CCC(=O)Nc2ccc(C)cc2C)nnc1CCC(C)C [Example F-51] | > 3 | > 3 |
| CCn1c(CCC(=O)Nc2cccc(Cl)c2C)nnc1CCC(C)C [Example F-52] | > 3 | < 3 |
| CCn1c(CCC(=O)Nc2cccc(Cl)c2C)nnc1CCC(C)(C)C [Example F-53] | > 3 | < 3 |
| CCn1c(CCC(=O)Nc2cccc(Cl)c2C)nnc1CCC1CCCC1 [Example F-54] | < 3 | < 3 |
| Cc1c(Cl)cccc1NC(=O)CCc1nnc(CCC(C)C)n1C1CC1 [Example F-55] | > 3 | < 3 |
| CC(C)CCc1nnc(CCC(=O)Nc2ccccc2)n1C1CC1 [Example F-56] | > 3 | > 3 |
| CC(C)CCc1nnc(CCC(=O)NCc2ccccc2)n1C1CC1 [Example F-57] | > 3 | > 3 |

| SMILES | EC50 (human RORγ) [µM] | EC50 (mouse RORγ) [µM] |
| --- | --- | --- |
| CC(C)CCc1nnc(CCC(=O)NCCc2ccccc2)n1C1CC1 [Example F-58] | > 3 | > 3 |
| Cc1ccccc1CNC(=O)CCc1nnc(CCC(C)C)n1C1CC1 [Example F-59] | > 3 | > 3 |
| Cc1cccc(CNC(=O)CCc2nnc(CCC(C)C)n2C2CC2)c1 [Example F-60] | > 3 | > 3 |
| Cc1ccc(CNC(=O)CCc2nnc(CCC(C)C)n2C2CC2)cc1 [Example F-61] | > 3 | > 3 |
| CC(C)CCc1nnc(CCC(=O)N[C@@H](C)c2ccccc2)n1C1CC1 [Example F-62] | > 3 | > 3 |
| CC(C)CCc1nnc(CCC(=O)N[C@H](C)c2ccccc2)n1C1CC1 [Example F-63] | > 3 | > 3 |
| Cc1ccccc1NC(=O)CCc1nnc(CCC(C)C)n1C1CC1 [Example F-64] | > 3 | > 3 |
| Cc1cccc(NC(=O)CCc2nnc(CCC(C)C)n2C2CC2)c1 [Example F-65] | > 3 | > 3 |
| Cc1ccc(NC(=O)CCc2nnc(CCC(C)C)n2C2CC2)cc1 [Example F-66] | > 3 | > 3 |
| Cc1ccc(CCNC(=O)CCc2nnc(CCC(C)C)n2C2CC2)cc1 [Example F-67] | > 3 | > 3 |
| Cc1cccc(CCNC(=O)CCc2nnc(CCC(C)C)n2C2CC2)c1 [Example F-68] | > 3 | > 3 |
| Cc1ccc(NC(=O)CCc2nnc(CCC(C)(C)C)n2C2CC2)c(C)c1 [Example F-69] | > 3 | < 3 |
| Cc1cccc(C)c1NC(=O)CCc1nnc(CCC(C)C)n1C1CC1 [Example F-70] | > 3 | > 3 |
| Cc1ccc(C)c(NC(=O)CCc2nnc(CCC(C)C)n2C2CC2)c1 [Example F-71] | > 3 | > 3 |
| CCc1ccccc1NC(=O)CCc1nnc(CCC(C)C)n1C1CC1 [Example F-72] | > 3 | > 3 |
| COc1ccccc1NC(=O)CCc1nnc(CCC(C)C)n1C1CC1 [Example F-73] | > 3 | > 3 |
| Cc1ccc(NC(=O)CCc2nnc(CCC(C)C)n2C2CC2)cc1C [Example F-74] | > 3 | > 3 |
| CC(C)CCc1nnc(CCC(=O)Nc2ccccc2C(C)C)n1C1CC1 [Example F-75] | > 3 | > 3 |
| Cc1cc(C)cc(NC(=O)CCc2nnc(CCC(C)C)n2C2CC2)c1 [Example F-76] | > 3 | > 3 |
| CCCc1ccccc1NC(=O)CCc1nnc(CCC(C)C)n1C1CC1 [Example F-77] | > 3 | > 3 |
| Cc1cccc(NC(=O)CCc2nnc(CCC(C)C)n2C2CC2)c1C [Example F-78] | > 3 | < 3 |
| Cc1ccc(NC(=O)CCc2nnc(CCC(C)C)n2C2CC2)c(C)c1 [Example F-79] | > 3 | > 3 |

| SMILES | EC50 (human RORγ) [µM] | EC50 (mouse RORγ) [µM] |
| --- | --- | --- |
| Cc1cccnc1NC(=O)CCc1nnc(CCC(C)C)n1C1CC1 [Example F-80] | > 3 | > 3 |
| CC(C)CCc1nnc(CCC(=O)Nc2cccc3ccccc23)n1C1CC1 [Example F-81] | < 3 | < 3 |
| COc1ccc(NC(=O)CCc2nnc(CCC(C)C)n2C2CC2)c(C)c1 [Example F-82] | > 3 | > 3 |
| Cc1c(Br)cccc1NC(=O)CCc1nnc(CCC(C)C)n1C1CC1 [Example F-84] | < 3 | < 3 |
| COc1cccc(NC(=O)CCc2nnc(CCC(C)C)n2C2CC2)c1C [Example F-85] | > 3 | > 3 |
| COc1cccc(C)c1NC(=O)CCc1nnc(CCC(C)C)n1C1CC1 [Example F-86] | > 3 | > 3 |
| Cc1c(CO)cccc1NC(=O)CCc1nnc(CCC(C)C)n1C1CC1 [Example F-87] | > 3 | > 3 |
| Cc1cc(CO)ccc1NC(=O)CCc1nnc(CCC(C)C)n1C1CC1 [Example F-88] | > 3 | > 3 |
| Cc1cnccc1NC(=O)CCc1nnc(CCC(C)C)n1C1CC1 [Example F-89] | > 3 | > 3 |
| Cc1ccncc1NC(=O)CCc1nnc(CCC(C)C)n1C1CC1 [Example F-90] | > 3 | > 3 |
| Cc1ncccc1NC(=O)CCc1nnc(CCC(C)C)n1C1CC1 [Example F-91] | > 3 | > 3 |
| COc1ccc(C)c(NC(=O)CCc2nnc(CCC(C)C)n2C2CC2)c1 [Example F-92] | > 3 | > 3 |
| CC(C)CCc1nnc(CCC(=O)Nc2ccccc2Cl)n1C1CC1 [Example F-93] | > 3 | > 3 |
| Cc1c(Cl)cccc1NC(=O)CCc1nnc(CCC2CCCCC2)n1C1CC1 [Example F-94] | < 3 | < 3 |
| Cc1ccc(NC(=O)CCc2nnc(CCC3CCCCC3)n2C2CC2)c(C)c1 [Example F-95] | < 3 | < 3 |
| Cc1ccc(NC(=O)CCc2nnc(CO)n2C2CC2)c(C)c1 [Example F-96] | > 3 | > 3 |
| Cc1ccc(NC(=O)CCc2nnc(COC(C)(C)C)n2C2CC2)c(C)c1 [Example F-97] | > 3 | > 3 |
| Cc1c(NC(=O)CCc2nnc(CCC(C)C)n2C2CC2)cccc1C(F)(F)F [Example F-99] | > 3 | < 3 |
| CC(C)CCc1nnc(CCC(=O)Nc2cccc(Cl)c2F)n1C1CC1 [Example F-100] | > 3 | > 3 |
| Cc1c(F)cccc1NC(=O)CCc1nnc(CCC(C)C)n1C1CC1 [Example F-101] | > 3 | > 3 |
| CC(C)CCc1nnc(CCC(=O)NC2CCCCC2C)n1C1CC1 (stereo not drawn) [Example F-102] | > 3 | > 3 |
| CC(C)CCc1nnc(CCC(=O)NC[C@H](O)c2ccccc2)n1C1CC1 [Example F-103] | > 3 | > 3 |
